According to publication PMC7156724, “Potent BRD4 inhibitor suppresses cancer cell-macrophage interaction” (Nature Communications, 2020):
Several values for one entry are separate records, joined by “and”; a condition that tells them apart may be missing. Identical values can stand only once.

Experiments:
[1] = test system: NCI-H211 small cell lung cancer (SCLC) cells; assay: AlamarBlue assay, NCI-H211; format: cell-based; conditions: for Cellular activity in SCLCs (H211), alamarBlue: Fig.1e, replicates
Procedure: (§1) 3. AlamarBlue assay. AlamarBlue was made by resazurin sodium salt (Sigma, Cat
(§2) # 199303) dissolved in PBS.
(§3) NCI-H211, MDA-MB231 and A375 cells were plated in 96-well plates at approximately 30% confluence and left overnight to adhere. In the following day, […]
(§4) of treatment, 10 μl AlamarBlue reagent (0.3 mg/ml) was added to each well, and after 18h, the florescence intensity in each well was measured using a top-reading fluorescent plate reader with excitation at 530 nm and emission at 590 nm. […]

[2] = test system: MDA-MB231 triple negative breast cancer (TNBC) cells; assay: AlamarBlue assay, MDA-MB231; format: cell-based, human; conditions: for Cellular activity in TNBCs (MDA-MB231), alamarBlue: Fig.1f, replicates
Procedure: as §1, §2, §3, §4

[3] = test system: phosphorylated BRD4 and c-MYC; assay: Western blot of p-BRD4, BRD4 and c-MYC in solid tumor cell lines; format: cell-based, human; conditions: 50 nM, 24 h
Procedure: (§5) Fig. 2 NHWD-870 inhibited BRD4 phosphorylation and c-MYC expression, and suppressed cell growth. a Representative western blot analysis of p-BRD4 (s484/488), BRD4, c-MYC, and GAPDH after treatment of MDA-MB231, SUM159, A2780 ES-2, and H526 cells with JQ-1 or NHWD-870 at the indicated concentrations for 24 h. GAPDH served as the loading control. Selected from three independent experiments. b MTT assays of H526, A2780, ES-2, and MDA-MB231 cells treated with JQ-1 or NHWD-870 at the indicated concentrations for 5 days. Data are presented as mean ± SEM from three independent experiments. c, d Clonogenic assays of H526, A2780, ES-2 and MDA-MB231 cells treated with 250 nM JQ-1 or NHWD-870 for 5 days. Shown are representative images (c) and quantification of colonies (d). […] Shown are representative images (e) and quantification of relative colony sizes (f). Scale bar, 50 μm. Data are presented as mean ± SEM from five independent experiments. p values were calculated using two-tailed, unpaired t tests in this figure. **p < 0.01; ***p < 0.001. Source data are provided as a Source Data file. […]
4. Protein extraction and w estern blot anal ysis. Freshly dissected unfixed tissue was homogenized in lysis buffer. The lysates were centrifuged at 13,000g for 10 minutes at 4°C. Supernatants were collected and determined with a Bradford Protein Assay kit (Bio-Rad, Hercules, CA). The cell lysates were subjected to SDS-PAGE followed by immunoblotting (Immobilon P; Millipore, Milford, MA) with specific antibodies followed by detection using an enhanced chemilumine scence kit (Amersham Life Science, Arlington Heights, IL). […]

H526 cells = assay: Clonogenic (colony formation) assay, H526; format: cell-based, human; conditions: H526, 250 nM, 5 days
Procedure: as §5
(§6) 5. Colony formation assay. Cells were seeded in 6-well plates at 3,000 cells/well […]
(§7) every week. […] Colony numbers were calculated with imageJ version

A2780 cells = assay: Clonogenic (colony formation) assay, A2780; format: cell-based, human; conditions: A2780, 250 nM, 5 days
Procedure: as §5, §6, §7

ES-2 cells = assay: Clonogenic (colony formation) assay, ES-2; format: cell-based, human; conditions: ES-2, 250 nM, 5 days
Procedure: as §5, §6, §7

MDA-MB231 cells = assay: Clonogenic (colony formation) assay, MDA-MB231; format: cell-based, human; conditions: MDA-MB231, 250 nM, 5 days
Procedure: as §5, §6, §7

[4] = test system: BRD4 binding to the HIF1α promoter; design: method as in PMID 30224758, PMID 29054992; conditions: MDA-MB 231 cells ref 45, 46; cited from earlier work

Cc1sc2c(c1C)C(c1ccc(Cl)cc1)=N[C@@H](CC(=O)OC(C)(C)C)c1nnc(C)n1-2 [JQ1, reference compound]
IC50 ([1]; 72 h treatment, nM, read-out: IC50, cellular activity in NCI-H211 (alamarBlue)): 102 nM
Cellular activity in SCLCs (H211), alamarBlue ([1]; concentration 0.0169701): 8.89 and 26.86
Cellular activity in SCLCs (H211), alamarBlue ([1]; concentration 0.0398488): 1.52 and 21.49
Cellular activity in SCLCs (H211), alamarBlue ([1]; concentration 0.137272): 0.75 and 21.87
Cellular activity in SCLCs (H211), alamarBlue ([1]; concentration 0.614394): 3.74 and 1.29
Cellular activity in SCLCs (H211), alamarBlue ([1]; concentration 1.09152): 4.01 and 4.44
Cellular activity in SCLCs (H211), alamarBlue ([1]; concentration 1.56864): 8.74 and 4.85
Cellular activity in SCLCs (H211), alamarBlue ([1]; concentration 2.04576): 60.7 and 49.9
Cellular activity in SCLCs (H211), alamarBlue ([1]; concentration 3): 94.26 and 94.75
Cellular activity in SCLCs (H211), alamarBlue ([1]; concentration column prints 2.52288): 94.02 and 94.2
IC50 ([2]; 72 h treatment, nM, read-out: IC50, cellular activity in MDA-MB231 (alamarBlue)): 65 nM
Cellular activity in TNBCs (MDA-MB231), alamarBlue ([2]; concentration 0.15): 0.75 and 21.87
Cellular activity in TNBCs (MDA-MB231), alamarBlue ([2]; concentration 0.6): 3.74 and 1.29
Cellular activity in TNBCs (MDA-MB231), alamarBlue ([2]; concentration 1): 19.01 and 19.44
Cellular activity in TNBCs (MDA-MB231), alamarBlue ([2]; concentration 1.5): 38.74 and 34.85
Cellular activity in TNBCs (MDA-MB231), alamarBlue ([2]; concentration 2): 60.7 and 49.9
Cellular activity in TNBCs (MDA-MB231), alamarBlue ([2]; concentration 2.5): 94.02 and 94.2
Cellular activity in TNBCs (MDA-MB231), alamarBlue ([2]; concentration 3): 94.26 and 94.75
Cellular activity in TNBCs (MDA-MB231), alamarBlue ([2]; concentration -0.3): 1.52 and 21.49
Cellular activity in TNBCs (MDA-MB231), alamarBlue ([2]; concentration -0.9): 8.89 and 26.86
effect on phosphorylated BRD4 and c-MYC (western blot) [3]: no effect
Clone Number (clonogenic assay) (H526 cells): 627 and 705 and 686 and 632 and 603
Clone Number (clonogenic assay) (A2780 cells): 839 and 794 and 803 and 802 and 753
Clone Number (clonogenic assay) (ES-2 cells): 575 and 505 and 619 and 501 and 621
Clone Number (clonogenic assay) (MDA-MB231 cells): 1294 and 1205 and 1074 and 1155 and 1020
BRD4 binding to the HIF1α promoter (ChIP-seq) [4]: reduced BRD4 binding to the HIF1α promoter
